How the values were obtained:
p38α = target: T1, p38α (Homo sapiens, UniProt Q16539); assay: p38 MAP Kinase assay: inhibition of ATF2 phosphorylation, ELISA; format: biochemical; conditions: for IC50: ATF2 phosphorylation, read-out: [ENZ] P38 ALPHA, IC50, ELISA; for inhibition at 10 µM: substrate ATF2, read-out: [ENZ] P38 ALPHA, PCT INH, ELISA (10 uM;ATF2) (Percent)
T1 construct: p38 MAP Kinases are recombinant human full-length proteins with an amino-terminal GST fusion; GST (N); purchased Upstate Biotechnology Inc; host or cells: E. coli
T1 sequence (Q16539 whole entry, the tested form may be a part): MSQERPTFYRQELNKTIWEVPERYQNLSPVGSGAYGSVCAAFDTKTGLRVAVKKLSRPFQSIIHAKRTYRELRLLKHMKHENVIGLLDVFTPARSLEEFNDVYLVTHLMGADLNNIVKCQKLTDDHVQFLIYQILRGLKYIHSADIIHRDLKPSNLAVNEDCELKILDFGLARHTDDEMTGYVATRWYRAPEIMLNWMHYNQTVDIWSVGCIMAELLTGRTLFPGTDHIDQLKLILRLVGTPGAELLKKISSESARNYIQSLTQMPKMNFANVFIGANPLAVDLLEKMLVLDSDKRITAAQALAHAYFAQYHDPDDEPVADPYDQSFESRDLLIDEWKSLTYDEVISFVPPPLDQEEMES
In short: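 GST-tagged full-length human p38 MAP kinase with GST-ATF2 (aa 19–96; 1.25 μM) and 40 μM ATP in HEPES pH 7.5 buffer, without (Method I) or with (Method II) 1% human serum albumin. Compound pre-incubated 15 min at room temperature; reaction 30 min at 37 °C; ATF2 Thr69 phosphorylation measured by ELISA (A450).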

[1] = system: TNFα release from THP-1 cells; assay: Inhibition of TNFα release from LPS-stimulated THP-1 cells, ELISA; format: cell-based; conditions: Homo sapiens, THP-1, THP-1 cells, read-out: [CELL] THP-1, IC50, TNF ALPHA, ELISA
In short: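 Human THP-1 monocytes, 10^6 cells/ml in RPMI with 10% FBS, no serum or 1% HSA, preincubated 30 min at 37 °C with compound (≤0.5% DMSO), then stimulated with 10 μg/ml LPS for 18 h. Supernatant TNFα measured by ELISA; IC50 from non-linear dose-response regression.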

SMILES | IC50 (p38α) [nM] | IC50 [1] [nM] | melting point [°C] | inhibition at 10 µM (p38α) [%]
CC(C)CN(C)c1cc(F)cc(C(=O)Nc2ccc(OCCN3CCOCC3)c3ccccc23)c1 [Compound B210, 3-Fluoro-5-[isobutyl(methyl)amino]-N-[4-(2-morpholin-4-ylethoxy)-1-naphthyl]benzamide] | 1300 | > 10000 | 126 to 128 | –
O=C(Nc1ccc(OCCN2CCOCC2)c2ccccc12)c1cc(F)cc(OC2CCCC2)c1 [Compound B225, 3-(Cyclopentyloxy)-5-fluoro-N-[4-(2-morpholin-4-ylethoxy)-1-naphthyl]benzamide] | 439 | 4090 | 117 to 119 | –
O=C(Nc1ccc(OCCN2CCOCC2)c2ccccc12)c1cc(F)cc(OC2CCCCC2)c1 [Compound B195, 3-(Cyclohexyloxy)-5-fluoro-N-[4-(2-morpholin-4-ylethoxy)-1-naphthyl]benzamide] | 413 | > 10000 | 116 to 118 | –
O=C(Nc1ccc(OCCc2cccnc2)c2ccccc12)c1cc(F)cc(N2CCOCC2)c1 [Compound B190] | 826 | 7520 | 80 to 82 | –
CN(CC1OCCO1)c1nccc(Oc2ccc(NC(=O)c3cc(F)cc(N4CCOCC4)c3)c3ccccc23)n1 [Compound B349, N-[4-({2-[(1,3-Dioxolan-2-ylmethyl)(methyl)amino]pyrimidin-4-yl}oxy)-1-naphthyl]-3-fluoro-5-morpholin-4-ylbenzamide] | 18.7 | 74.7 | 111 to 112 | –
CN1CCCC1CCNc1nccc(Oc2ccc(NC(=O)c3cc(F)cc(N4CCOCC4)c3)c3ccccc23)n1 (stereo not drawn) [Compound B344, 3-Fluoro-N-{4-[(2-{[2-(1-methylpyrrolidin-2-yl)ethyl]amino}pyrimidin-4-yl)oxy]-1-naphthyl}-5-morpholin-4-ylbenzamide] | 1.1 | 6.1 | 100 to 101 | –
O=C(Nc1ccc(OCCN2CCOCC2)c2ccccc12)c1cc(F)cc(N2CCCCCC2)c1 [Compound B67, 3-Azepan-1-yl-5-fluoro-N-[4-(2-morpholin-4-ylethoxy)-1-naphthyl]benzamide] | 620 | 9080 | 142 to 144 | 85
C#CCN(C)c1nccc(Oc2ccc(NC(=O)c3cc(F)cc(N4CCOCC4)c3)c3ccccc23)n1 [Compound B352, 3-Fluoro-N-[4-({2-[methyl(prop-2-yn-1-yl)amino]pyrimidin-4-yl}oxy)-1-naphthyl]-5-morpholin-4-ylbenzamide] | 32.5 | 518 | 97 to 98 | –
CN(C(=N)N)c1nccc(Oc2ccc(NC(=O)c3cc(F)cc(N4CCOCC4)c3)c3ccccc23)n1 [Compound B367, N-[4-({2-[[amino(imino)methyl](methyl)amino]pyrimidin-4-yl}oxy)-1-naphthyl]-3-fluoro-5-morpholin-4-ylbenzamide] | 18.2 | 649 | 155 to 157 | –
N#Cc1ccc(C(=O)Nc2ccc(OCCN3CCOCC3)c3ccccc23)cc1 [Compound B36, 4-Cyano-N-[4-(2-morpholin-4-ylethoxy)-1-naphthyl]benzamide] | 5090 | 6620 | 213 to 214 | –
CC1CCCN1c1cc(F)cc(C(=O)Nc2ccc(OCCN3CCOCC3)c3ccccc23)c1 (stereo not drawn) [Compound B208, 3-Fluoro-5-(2-methylpyrrolidin-1-yl)-N-[4-(2-morpholin-4-ylethoxy)-1-naphthyl]benzamide] | 167 | 3640 | 108 to 111 | –
CC(C)CNc1nccc(Oc2ccc(NC(=O)c3cc(F)cc(N4CCOCC4)c3)c3ccccc23)n1 [Compound B318, 3-Fluoro-N-(4-{[2-(isobutylamino)pyrimidin-4-yl]oxy}-1-naphthyl)-5-morpholin-4-ylbenzamide] | 7.2 | 38.3 | 96 to 97 | –
O=C1CN(CCCOc2ccc(NC(=O)c3cc(F)cc(N4CCCCC4)c3)c3ccccc23)CCN1 [Compound B175, 3-Fluoro-N-{4-[3-(3-oxo-piperazin-1-yl)-propoxy]-naphthalen-1-yl}-5-piperidin-1-yl-benzamide] | 1110 | > 10000 | 90 to 92 | –

Next, values leading:

IC50 (p38α) [nM] | IC50 [1] [nM] | melting point [°C] | inhibition at 10 µM (p38α) [%] | SMILES
17.1 | 225 | 195 to 196 | – | O=C(Nc1ccc(Oc2ccnc(N3CCC4(CC3)OCCO4)n2)c2ccccc12)c1cc(F)cc(N2CCCCC2)c1 [Compound B378, N-(4-{[2-(1,4-Dioxa-8-azaspiro[4.5]dec-8-yl)pyrimidin-4-yl]oxy}-1-naphthyl)-3-fluoro-5-piperidin-1-ylbenzamide]
22.2 | > 1000 | 117 to 118 | – | CC1CCN(c2nccc(Oc3ccc(NC(=O)c4cc(F)cc(N5CCOCC5)c4)c4ccccc34)n2)CC1 [Compound B335, 3-Fluoro-N-(4-{[2-(4-methylpiperidin-1-yl)pyrimidin-4-yl]oxy}-1-naphthyl)-5-morpholin-4-ylbenzamide]
8.4 | 217 | 182 to 184 | – | CN1CCN(c2nccc(Oc3ccc(NC(=O)c4cc(F)cc(N5CCCCC5)c4)c4ccccc34)n2)CC1 [Compound B372, 3-Fluoro-N-(4-{[2-(4-methylpiperazin-1-yl)pyrimidin-4-yl]oxy}-1-naphthyl)-5-piperidin-1-ylbenzamide]
1100 | > 10000 | 70 to 72 | 84 | O=C(Nc1ccc(OCCCN2CCOCC2)c2ccccc12)c1cc(F)cc(N2CCCCC2)c1 [Compound B161, 3-Fluoro-N-[4-(3-morpholin-4-yl-propoxy)-naphthalen-1-yl]-5-piperidin-1-yl-benzamide]
19.7 | 141 | 108 to 110 | – | O=C1CN(c2nccc(Oc3ccc(NC(=O)c4cc(F)cc(N5CCOCC5)c4)c4ccccc34)n2)CCN1 [Compound B368, 3-Fluoro-5-morpholin-4-yl-N-(4-{[2-(3-oxopiperazin-1-yl)pyrimidin-4-yl]oxy}-1-naphthyl)benzamide]
1.7 | 23.5 | 96 to 98 | – | O=C(Nc1ccc(Oc2ccnc(NCC3OCCO3)n2)c2ccccc12)c1cc(F)cc(N2CCCCC2)c1 [Compound B411, N-[4-({2-[(1,3-Dioxolan-2-ylmethyl)amino]pyrimidin-4-yl}oxy)-1-naphthyl]-3-fluoro-5-piperidin-1-ylbenzamide]
2.1 | 89 | 92 to 94 | – | O=C(Nc1ccc(Oc2ccnc(NCCN3CCCC3)n2)c2ccccc12)c1cc(F)cc(N2CCCCC2)c1 [Compound B389, 3-Fluoro-5-piperidin-1-yl-N-[4-({2-[(2-pyrrolidin-1-ylethyl)amino]pyrimidin-4-yl}oxy)-1-naphthyl]benzamide]
1.6 | 63.2 | 102 to 104 | – | CS(=O)(=O)CCNc1nccc(Oc2ccc(NC(=O)c3cc(F)cc(N4CCCCC4)c3)c3ccccc23)n1 [Compound B422, 3-Fluoro-N-{4-[(2-{[2-(methylsulfonyl)ethyl]amino}pyrimidin-4-yl)oxy]-1-naphthyl}-5-piperidin-1-ylbenzamide]
40.2 | 69.4 | 189 to 190 | – | CSc1nccc(Oc2ccc(NC(=O)c3cc(F)cc(N4CCOCC4)c3)c3ccccc23)n1 [Compound B246, 3-Fluoro-N-(4-{[2-(methylthio)pyrimidin-4-yl]oxy}-1-naphthyl)-5-morpholin-4-ylbenzamide]
56 | 179 | 170 to 172 | – | CSc1nccc(Oc2ccc(NC(=O)c3cc(F)cc(N4CCCCC4)c3)c3ccccc23)n1 [Compound B311, 3-Fluoro-N-(4-{[2-(methylthio)pyrimidin-4-yl]oxy}-1-naphthyl)-5-piperidin-1-ylbenzamide]
8.2 | 276 | 205 to 207 | – | O=C(Nc1ccc(Oc2ccnc(N3CCCC3)n2)c2ccccc12)c1cc(F)cc(N2CCOCC2)c1 [Compound B334, 3-Fluoro-5-morpholin-4-yl-N-{4-[(2-pyrrolidin-1-ylpyrimidin-4-yl)oxy]-1-naphthyl}benzamide]
997 | > 10000 | 210 to 211 | 84 | CC(=O)N1CCN(CCCOc2ccc(NC(=O)c3cc(F)cc(N4CCCCC4)c3)c3ccccc23)CC1 [Compound B165, N-{4-[3-(4-Acetyl-piperazin-1-yl)-propoxy]-naphthalen-1-yl}-3-fluoro-5-piperidin-1-yl-benzamide]
111 | 773 | 172 to 174 | – | O=C(Nc1ccc(Oc2ccnc(N3CCC(F)(F)CC3)n2)c2ccccc12)c1cc(F)cc(N2CCCCC2)c1 [Compound B423, N-(4-{[2-(4,4-Difluoropiperidin-1-yl)pyrimidin-4-yl]oxy}-1-naphthyl)-3-fluoro-5-piperidin-1-ylbenzamide]
